Laboratory results published in publication PMC12715788, “Unraveling the Potential of Small Molecule Heparin Glycomimetics in Neuroregenerative Therapeutics” (Journal of the American Chemical Society, 2025).
Several values for one entry are separate records, joined by “and”; a condition that tells them apart may be missing. Equal entries are not always repeated. Where two headings read alike, the source gives them in different places.

Legend:
AT-III = AT-III (Homo sapiens, UniProt P01008); experiment: BLI binding assay, sugars immobilized, protein as analyte
Chain of AT-III (P01008 33-464): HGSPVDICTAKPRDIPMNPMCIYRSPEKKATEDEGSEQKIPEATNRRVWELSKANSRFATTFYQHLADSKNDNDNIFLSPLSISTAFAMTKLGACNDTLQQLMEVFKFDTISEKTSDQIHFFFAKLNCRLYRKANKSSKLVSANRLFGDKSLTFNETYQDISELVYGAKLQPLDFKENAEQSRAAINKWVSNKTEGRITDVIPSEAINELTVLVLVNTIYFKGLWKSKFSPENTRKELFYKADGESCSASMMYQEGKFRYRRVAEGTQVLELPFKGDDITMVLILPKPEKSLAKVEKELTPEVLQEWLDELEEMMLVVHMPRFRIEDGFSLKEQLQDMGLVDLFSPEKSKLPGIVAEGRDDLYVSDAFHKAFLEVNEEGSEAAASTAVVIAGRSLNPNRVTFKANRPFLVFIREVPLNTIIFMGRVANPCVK
Protocol: (§1) We evaluated the binding affinity of native HS and synthetic HS glycomimetics (M1, D1, D2, D3, and T1) to these proteins using biolayer interferometry (BLI). The terminal amino groups of the sugars were immobilized onto the sensor surface using standard amine coupling chemistry, and binding assays were performed by introducing the proteins as analytes at varying concentrations (Figure A). The equilibrium dissociation constants (K D) were determined using the steady-state affinity curve fitting.

FGF-1 [1] = molecular target: T1, FGF-1 (Homo sapiens, UniProt P05230); experiment: as above; settings: steady-state affinity curve fitting
T1 sequence (P05230 whole entry, species assumed): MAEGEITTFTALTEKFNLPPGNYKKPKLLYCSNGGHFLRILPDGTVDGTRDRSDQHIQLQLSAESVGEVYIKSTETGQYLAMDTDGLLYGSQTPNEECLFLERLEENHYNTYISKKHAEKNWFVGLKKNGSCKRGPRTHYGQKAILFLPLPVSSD
Protocol: as §1

FGF-2 [2] = molecular target: T2, FGF-2 (Homo sapiens, UniProt P09038); experiment: as above; settings: steady-state affinity curve fitting
T2 sequence (P09038 134-288 limits assumed, species assumed): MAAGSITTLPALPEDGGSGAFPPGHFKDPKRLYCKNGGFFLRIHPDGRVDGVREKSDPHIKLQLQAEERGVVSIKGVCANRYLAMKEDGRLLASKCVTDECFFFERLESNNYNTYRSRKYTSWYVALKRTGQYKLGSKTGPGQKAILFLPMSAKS
Protocol: as §1

NGF = NGF (Homo sapiens, UniProt P01138); experiment: as above; settings: steady-state affinity curve fitting
Chain of NGF (P01138 122-241): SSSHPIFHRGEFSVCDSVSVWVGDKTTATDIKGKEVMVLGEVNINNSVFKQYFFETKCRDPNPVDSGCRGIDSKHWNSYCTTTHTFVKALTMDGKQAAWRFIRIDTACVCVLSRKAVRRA
Protocol: as §1

FGF-2 [3] = molecular target: T2, FGF-2; experiment: BLI competition assay with immobilized native HS for FGF-2 binding
Source text: We next examined the functional relevance of the synthetic HS glycomimetics by testing their ability to compete with native HS for FGF-2 binding using competition assays. Although direct binding assays measure the intrinsic affinity of HS glycomimetics for FGF-2, they are limited in representing the complex, multimolecular environment of biological systems. In vivo, FGF-2 activity is tightly regulated by its interactions with GAGs, which are abundant on cell surfaces and in the ECM. These interactions stabilize FGF-2 and facilitate its dimerization with FGF receptors (FGFRs), a requirement for effective signal transduction. , Thus, therapeutic candidates targeting FGF-2 must be evaluated not only for direct binding but also for their ability to modulate or disrupt GAG-mediated interactions. Therefore, we performed competition assays in which native HS was immobilized on the sensor surface. Solutions containing a fixed concentration of FGF-2 (50 nM) were premixed with varying concentrations of HS glycomimetics, functioning as inhibitors in this context, (M1, D1, D2, D3, and T1) and also with the heparin hexasaccharide (H1) (GlcNS6S-GlcA-GlcNS3S6S-IdoA2S-GlcNS6S-GlcA), a well-studied HS glycomimetic in the literature, as a positive control (Figure B). […] The progressive decrease in signal intensity with increasing inhibitor concentration directly reflects competition with immobilized HS for FGF-2 binding.

FGF-1 [4] = molecular target: T1, FGF-1; experiment: Far-UV CD spectroscopy and CD thermal denaturation; settings: CD thermal denaturation 10–90 °C; protein with sugar, 1:3 molar ratio
Source text: (§2) To select a lead compound, we complemented the affinity data with a series of studies evaluating the structural and functional implications of protein-HS glycomimetic interactions. We assessed the therapeutic safety profile of our HS glycomimetics. We also employed circular dichroism (CD) spectroscopy to assess secondary structural changes in protein conformation upon binding to native HS and HS glycomimetics. Since native HS alone produces only a minimal signal, it was ensured that its contribution would not interfere with protein-sugar complex spectra. Therefore, only the far-UV CD spectra of bare proteins and their sugar complexes were recorded. […] Upon incubation with sugars (1:3 molar ratio), significant spectral changes were observed, indicating sugar-induced alterations in secondary structure (Figure A).
(§3) We also evaluated the thermal stability of the proteins and their sugar complexes by CD-based thermal denaturation experiments. The spectra were recorded across a temperature range of 10–90 °C (Figure B). For all proteins except AT-III, the unfolding profiles were analyzed to determine the melting temperature (T m), representing the midpoint of the transition from the folded to the unfolded state, an indicator of structural integrity and resistance to thermal denaturation. The calculated values are compiled in Table .

FGF-2 [5] = molecular target: T2, FGF-2; experiment: Far-UV CD spectroscopy and CD thermal denaturation; settings: CD thermal denaturation 10–90 °C; protein with sugar, 1:3 molar ratio
Source text: as §2, §3

[6] = system: citrated pooled rat plasma; experiment: Activated partial thromboplastin time (aPTT) assay
Source text: To complement these findings, we performed an activated partial thromboplastin time (aPTT) assay in citrated pooled rat plasma to assess the overall impact of the compounds on the intrinsic coagulation pathway. This global clotting assay measures the time required for fibrin formation and is sensitive to anticoagulant effects. Figure F,G compare the effects of UFH, heparan sulfate, Fondaparinux, and the synthetic glycomimetics when supplemented into citrated plasma. […] As expected, UFH produced a strong, concentration-dependent anticoagulant response, prolonging the mean clotting time to 271 s at the highest concentration tested, while heparan sulfate and Fondaparinux induced weaker but measurable effects (83 and 37 s, respectively). […] The results further confirm that selective sulfation patterns can decouple GF recognition from anticoagulant function, an essential prerequisite for their translational application in regenerative medicine. […] These interactions are in line with nonspecific electrostatic binding, a feature of highly sulfated oligosaccharides known to engage different proteins via charge-based, rather than specific, biologically targeted interactions. Thus, to avoid potential off-target effects associated with highly sulfated analogues, we selected the disaccharide D2 for subsequent biological experiments.

PC12 cells = experiment: NGF-mediated neurite outgrowth on sugar-coated substrates; assay type: cell-based, rat; settings: PC12 cells on coated surface, NGF 50 ng/mL; control 108 μm
Source text: We next examined the NGF-induced neuritogenic potential of the HS glycomimetics to determine whether they could potentiate neurotrophin-driven neuronal differentiation. To mimic the native role of HS proteoglycans in the ECM, which spatially sequester and present growth factors, we immobilized D2 and also native HS as a positive control onto culture substrates and evaluated its capacity to modulate neural maturation in two well-established neuronal cell models of different species origins, rat-derived PC12 cells and human-derived SH-SY5Y cells. These models represent distinct stages of neuronal differentiation and maturation, and the choice enabled us to compare cellular responses across species, thereby enhancing the translational relevance of our findings. PC12 cells respond to NGF by exiting the cell cycle and extending neurites, while SH-SY5Y cells serve as a model for later-stage maturation and neurite elongation. , […]
In PC12 cells, which serve as a classical model for NGF-induced neuronal differentiation, the presence of both immobilized D2 and native HS coatings led to notable morphological changes relative to control conditions (Figure C). […] Although images used for quantification were selected from well-dispersed regions, we also observed instances of cell clustering in both control and D2 groups (Figure S6.1, Supporting Information). […]

SH-SY5Y cells = experiment: NGF-mediated neuronal maturation on sugar-coated substrates, β-tubulin III fluorescence; assay type: cell-based, human; settings: SH-SY5Y cells on coated surface, NGF 50 ng/mL; control 1.43
Source text: We next examined the NGF-induced neuritogenic potential of the HS glycomimetics to determine whether they could potentiate neurotrophin-driven neuronal differentiation. To mimic the native role of HS proteoglycans in the ECM, which spatially sequester and present growth factors, we immobilized D2 and also native HS as a positive control onto culture substrates and evaluated its capacity to modulate neural maturation in two well-established neuronal cell models of different species origins, rat-derived PC12 cells and human-derived SH-SY5Y cells. These models represent distinct stages of neuronal differentiation and maturation, and the choice enabled us to compare cellular responses across species, thereby enhancing the translational relevance of our findings. PC12 cells respond to NGF by exiting the cell cycle and extending neurites, while SH-SY5Y cells serve as a model for later-stage maturation and neurite elongation. ,
In this context, the immobilization of D2 onto culture substrates provided a means to investigate how its presentation as an ECM-like component influences neurotrophic responses, particularly in combination with NGF. In both cell lines, D2 and native HS were applied to the substrate prior to seeding, thereby mimicking its natural role as a structural component of the ECM. […]

[7] = system: rat dissociated hippocampal neurons; experiment: Neurite morphometry in dissociated hippocampal neurons; assay type: cell-based; settings: 24 h treatment, 1 day in vitro, D2 1 μM, FGF-2 40 ng/mL, mean ± SEM
Protocol: In the pursuit of this, we used rat dissociated hippocampal neurons as an in vitro model system. We assessed the impact of HS glycomimetics on neuronal morphology, using immunofluorescence imaging and quantitative morphometric analysis, and on synaptic functionality through electrophysiological monitoring of spontaneous neuronal activity.
During the first day of differentiation in vitro (Table S7.1 in SI), neurons were treated for 24 h with either control medium, glycomimetic D2 (1 μM), FGF-2 (40 ng/mL) alone, or a combination of FGF-2 and D2 (40 ng/mL and 1 μM, respectively). After treatments, cultures were fixed and immuno-labeled with antibodies against the neuronal marker β-Tubulin III to study cell morphology. […] Quantitative analysis further corroborated these observations (Figure B–C).

Structure (SMILES): CC(=O)N[C@H]1[C@@H](OCCN)O[C@H](COS(=O)(=O)O)[C@@H](O[C@@H]2O[C@@H](C(=O)O)[C@@H](OS(=O)(=O)O)[C@H](O)[C@H]2OS(=O)(=O)O)[C@@H]1O [D2, IdoA2S4S-GlcNAc6S]
- binding to AT-III (AT-III): no measurable binding
- Kd (FGF-1 [1]): 780 nM
- Kd (FGF-2 [2]): 670 nM
- Kd (NGF; read-out: KD for NGF, two-site binding model, first value): 2600 nM
- Kd (NGF; read-out: KD for NGF, two-site binding model, second value): 468000 nM
- competition with immobilized native HS for FGF-2 binding, signal intensity (FGF-2 [3]; FGF-2 50 nM premixed with varying concentrations): dose-dependent reduction in signal intensity
- IC50 (FGF-2 [3]; FGF-2 50 nM, fixed association time t = 240 s, read-out: Apparent IC50(t), competition with immobilized native HS for FGF-2 binding): 17900 nM
- FGF-1 Sample Tm (FGF-1 [4]): 45.0 °C and 45.0 ± 0.4 °C
- FGF-2 Sample Tm (FGF-2 [5]): 52.4 °C and 52.4 ± 1.2 °C
- aPTT mean clotting time ([6]; citrated pooled rat plasma, highest concentration tested, control 22 s): 24 s
- anticoagulant activity ([6]; conclusion from aPTT and chromogenic assays): without any anticoagulant activity
- total neurite outgrowth per image (average sum of neurite length) (PC12 cells): 541 μm
- mean normalized β-tubulin III fluorescence intensity (SH-SY5Y cells): 2.15
- number of neurites emerging from the cell body ([7]; control 3.6 ± 0.22): 3.8 ± 0.23 neurites per neuron
- length of the longest neurite ([7]; control 38 ± 2): 43 ± 3 μm
